# Reference: patent US9828379B2 (priority 2013, dated 2017)
# What was measured:
# Experiment in all cases: In vitro competitive activity-based protein profiling (Table 2, % inhibition at 1 μM)
# Format in all cases: biochemical
# [1] = molecular target: T1, MAGL (Mus musculus, UniProt O35678); settings: read-out: % Inhibition at 1 μM MAGL
# T1 sequence (O35678 1-303): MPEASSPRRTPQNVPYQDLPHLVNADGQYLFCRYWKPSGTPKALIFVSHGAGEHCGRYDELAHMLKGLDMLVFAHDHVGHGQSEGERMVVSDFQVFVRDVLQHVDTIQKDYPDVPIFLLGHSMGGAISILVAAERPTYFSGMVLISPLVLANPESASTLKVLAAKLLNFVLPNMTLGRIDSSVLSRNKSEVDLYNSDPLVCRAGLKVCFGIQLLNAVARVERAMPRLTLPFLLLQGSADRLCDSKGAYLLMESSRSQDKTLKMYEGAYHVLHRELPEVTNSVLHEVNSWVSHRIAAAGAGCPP
# Protocol: After 30 min, FP—Rh (1.0 μL, 50 μM in DMSO) was added and the mixture was incubated for another 30 min at 37° C. Reactions were quenched with SDS loading buffer (50 μL-4×) and run on SDS-PAGE.
# Cell lysates were diluted with mock proteomes for use in competitive ABPP experiments.
# [2] = molecular target: T2, ABHD6 (Mus musculus, UniProt Q8R2Y0); settings: read-out: % Inhibition at 1 μM ABHD6
# T2 sequence (Q8R2Y0 1-336): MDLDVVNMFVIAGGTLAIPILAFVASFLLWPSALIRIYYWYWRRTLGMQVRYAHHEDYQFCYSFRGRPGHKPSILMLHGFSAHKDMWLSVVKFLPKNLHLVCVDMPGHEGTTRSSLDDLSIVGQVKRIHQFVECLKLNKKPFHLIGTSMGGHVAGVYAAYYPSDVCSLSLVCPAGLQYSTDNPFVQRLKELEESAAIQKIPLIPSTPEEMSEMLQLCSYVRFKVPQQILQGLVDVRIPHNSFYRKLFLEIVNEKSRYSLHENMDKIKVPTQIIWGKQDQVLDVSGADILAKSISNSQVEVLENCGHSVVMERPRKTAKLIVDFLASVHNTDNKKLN
# Protocol: (§1) After 30 min, FP—Rh (1.0 μL, 50 μM in DMSO) was added and the mixture was incubated for another 30 min at 37° C. Reactions were quenched with SDS loading buffer (50 μL-4×) and run on SDS-PAGE. Following gel imaging, serine hydrolase activity was determined by measuring fluorescent intensity of gel bands corresponding to MAGL, ABHD6 and FAAH using ImageJ 1.43 u software.
# (§2) hMAGL was expressed in HEK293T cells according to previously reported methods (see Niphakis, Long, and Blankman, J. L., et al. (2007) Chem. Biol. 14:1347-1356). Cell lysates were diluted with mock proteomes for use in competitive ABPP experiments.
# [3] = molecular target: T3, FAAH (Mus musculus, UniProt O08914); settings: read-out: % Inhibition at 1 μM FAAH
# T3 sequence (O08914 1-579): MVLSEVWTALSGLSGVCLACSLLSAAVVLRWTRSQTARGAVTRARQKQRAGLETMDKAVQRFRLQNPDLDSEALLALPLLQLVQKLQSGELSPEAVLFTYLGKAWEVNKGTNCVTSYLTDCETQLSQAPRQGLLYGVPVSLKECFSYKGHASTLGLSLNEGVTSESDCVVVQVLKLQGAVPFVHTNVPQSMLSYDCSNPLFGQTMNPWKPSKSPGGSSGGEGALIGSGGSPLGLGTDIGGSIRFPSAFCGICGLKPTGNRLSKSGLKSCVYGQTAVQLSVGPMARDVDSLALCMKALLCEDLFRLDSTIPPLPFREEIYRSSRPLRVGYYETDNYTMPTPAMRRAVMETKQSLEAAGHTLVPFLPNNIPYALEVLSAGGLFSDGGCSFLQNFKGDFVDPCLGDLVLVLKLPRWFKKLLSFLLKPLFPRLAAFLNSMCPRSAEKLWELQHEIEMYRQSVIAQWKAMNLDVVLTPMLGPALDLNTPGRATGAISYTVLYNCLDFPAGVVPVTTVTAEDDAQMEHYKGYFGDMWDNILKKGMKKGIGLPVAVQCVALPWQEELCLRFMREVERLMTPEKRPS
# Protocol: as §1, §2
Compound,inhibition at 1 µM [1] [%],inhibition at 1 µM [2] [%],inhibition at 1 µM [3] [%]
"O=C(ON1C(=O)CCC1=O)N1CC2CN(Cc3ccc(C(=O)N4CCOCC4)cc3Cl)CC2C1 (stereo not drawn) [Example 163, 2,5-dioxopyrrolidin-1-yl 5-(2-chloro-4-(morpholine-4-carbonyl)benzyl)-hexahydropyrrolo[3,4-c]pyrrole-2(1H)-carboxylate]",< 25,< 25,< 25
"CC(C)n1cc(CN2CC3CN(C(=O)ON4C(=O)CCC4=O)CC3C2)c(-c2ccccc2Cl)n1 (stereo not drawn) [Example 118, 2,5-Dioxopyrrolidin-1-yl 5-[[3-(2-chlorophenyl)-1-(propan-2-yl)-1H-pyrazol-4-yl]methyl]-octahydropyrrolo[3,4-c]pyrrole-2-carboxylate]",25 to 75,25 to 75,< 25
"CC(C)c1cc(CN2CC3CN(C(=O)ON4C(=O)CCC4=O)CC3C2)n(C2CCCCC2)n1 (stereo not drawn) [Example 123, 2,5-Dioxopyrrolidin-1-yl 5-[[1-cyclohexyl-3-(propan-2-yl)-1H-pyrazol-5-yl]methyl]-octahydropyrrolo[3,4-c]pyrrole-2-carboxylate]",25 to 75,> 75,< 25
"CC(C)c1ccc(CN2CC3CN(C(=O)ON4C(=O)CCC4=O)CC3C2)c(N2CCCC2)c1 (stereo not drawn) [Example 98, 2,5-Dioxopyrrolidin-1-yl 5-[[4-(propan-2-yl)-2-(pyrrolidin-1-yl)phenyl]methyl]-octahydropyrrolo[3,4-c]pyrrole-2-carboxylate]",25 to 75,< 25,< 25
"CC1COCCN1c1cc(Cl)ccc1CN1CC2CN(C(=O)ON3C(=O)CCC3=O)CC2C1 (stereo not drawn) [Example 95, 2,5-Dioxopyrrolidin-1-yl 5-[[4-chloro-2-(3-methylmorpholin-4-yl)phenyl]methyl]-octahydropyrrolo[3,4-c]pyrrole-2-carboxylate]",25 to 75,< 25,< 25
"O=C(ON1C(=O)CCC1=O)N1CC2CN(Cc3ccc(Cl)cc3N3Cc4cccnc4C3)CC2C1 (stereo not drawn) [Example 107, 2,5-Dioxopyrrolidin-1-yl 5-[(4-chloro-2-[5H,6H,7H-pyrrolo[3,4-b]pyridin-6-yl]phenyl)methyl]-octahydropyrrolo[3,4-c]pyrrole-2-carboxylate]",25 to 75,25 to 75,25 to 75
Cc1c(CN2CC3CN(C(=O)ON4C(=O)CCC4=O)CC3C2)cccc1N1CCN(C)CC1 (stereo not drawn) [Example 145],< 25,< 25,< 25
"O=C(OC(C(F)(F)F)C(F)(F)F)N1CC2CN(C(c3ccc(Cl)cc3)c3ccc(Cl)cc3)CC2C1 (stereo not drawn) [Example 8, 1,1,1,3,3,3-Hexafluoropropan-2-yl 5-[bis(4-chlorophenyl)methyl]-octahydropyrrolo[3,4-c]pyrrole-2-carboxylate]",25 to 75,25 to 75,< 25
"CCn1cc(CN2CC3CN(C(=O)OC(C(F)(F)F)C(F)(F)F)CC3C2)c(-c2ccc(N3CCOCC3)cc2)n1 (stereo not drawn) [Example 68, 1,1,1,3,3,3-Hexafluoropropan-2-yl 5-([1-ethyl-3-[4-(morpholin-4-yl)phenyl]-1H-pyrazol-4-yl]methyl)-octahydropyrrolo[3,4-c]pyrrole-2-carboxylate]",> 75,< 25,< 25
"O=C(ON1C(=O)CCC1=O)N1CC2CN(Cc3ccc(Cl)cc3N3CCOCC3)CC2C1 (stereo not drawn) [Example 93, 2,5-Dioxopyrrolidin-1-yl 5-[[4-chloro-2-(morpholin-4-yl)phenyl]methyl]-octahydropyrrolo[3,4-c]pyrrole-2-carboxylate]",25 to 75,25 to 75,< 25
"CC(=O)N1CCC(c2nn(C(C)C)cc2CN2CC3CN(C(=O)ON4C(=O)CCC4=O)CC3C2)CC1 (stereo not drawn) [Example 119, 2,5-Dioxopyrrolidin-1-yl 5-[[3-(1-acetylpiperidin-4-yl)-1-(propan-2-yl)-1H-pyrazol-4-yl]methyl]-octahydropyrrolo[3,4-c]pyrrole-2-carboxylate]",< 25,< 25,< 25
"CS(=O)(=O)N1CCN(c2cc(Cl)ccc2CN2CC3CN(C(=O)ON4C(=O)CCC4=O)CC3C2)CC1 (stereo not drawn) [Example 110, 2,5-Dioxopyrrolidin-1-yl 5-[[4-chloro-2-(4-methanesulfonylpiperazin-1-yl)phenyl]methyl]-octahydropyrrolo[3,4-c]pyrrole-2-carboxylate]",< 25,< 25,< 25
"CC(=O)N1CCC(n2nc(C)cc2CN2CC3CN(C(=O)ON4C(=O)CCC4=O)CC3C2)CC1 (stereo not drawn) [Example 122, 2,5-Dioxopyrrolidin-1-yl 5-[[1-(1-acetylpiperidin-4-yl)-3-methyl-1H-pyrazol-5-yl]methyl]-octahydropyrrolo[3,4-c]pyrrole-2-carboxylate]",< 25,< 25,< 25
"O=C(ON1C(=O)CCC1=O)N1CC2CN(Cc3ccc(Cl)cc3N3CCCC3)CC2C1 (stereo not drawn) [Example 94, 2,5-Dioxopyrrolidin-1-yl 5-[[4-chloro-2-(pyrrolidin-1-yl)phenyl]methyl]-octahydropyrrolo[3,4-c]pyrrole-2-carboxylate]",25 to 75,< 25,25 to 75
"CC(C)c1cc(CN2CC3CN(C(=O)ON4C(=O)CCC4=O)CC3C2)n(C2CCOCC2)n1 (stereo not drawn) [Example 124, 2,5-Dioxopyrrolidin-1-yl 5-[[1-(oxan-4-yl)-3-(propan-2-yl)-1H-pyrazol-5-yl]methyl]-octahydropyrrolo[3,4-c]pyrrole-2-carboxylate]",25 to 75,< 25,< 25
"O=C(OC(C(F)(F)F)C(F)(F)F)N1CC2CN(Cc3ccc(Cl)cc3N3CCOCC3)CC2C1 (stereo not drawn) [Example 18, 1,1,1,3,3,3-Hexafluoropropan-2-yl 5-[[4-chloro-2-(morpholin-4-yl)phenyl]methyl]-octahydropyrrolo[3,4-c]pyrrole-2-carboxylate]",> 75,25 to 75,25 to 75
"CC(C)n1cc(CN2CC3CN(C(=O)ON4C(=O)CCC4=O)CC3C2)c(C2CCN(S(C)(=O)=O)CC2)n1 (stereo not drawn) [Example 120, 2,5-Dioxopyrrolidin-1-yl 5-[[3-(1-methanesulfonylpiperidin-4-yl)-1-(propan-2-yl)-1H-pyrazol-4-yl]methyl]-octahydropyrrolo[3,4-c]pyrrole-2-carboxylate]",< 25,< 25,< 25
"Cn1nc(-c2cccc(F)c2)cc1CN1CC2CN(C(=O)ON3C(=O)CCC3=O)CC2C1 (stereo not drawn) [Example 198, 2,5-dioxopyrrolidin-1-yl 5-((3-(3-fluorophenyl)-1-methyl-1H-pyrazol-5-yl)methyl)hexahydropyrrolo[3,4-c]pyrrole-2(1H)-carboxylate]",< 25,< 25,< 25
"Cn1cc(CN2CC3CN(C(=O)ON4C(=O)CCC4=O)CC3C2)c(-c2ccccc2Cl)n1 (stereo not drawn) [Example 115, 2,5-Dioxopyrrolidin-1-yl 5-[[3-(2-chlorophenyl)-1-methyl-1H-pyrazol-4-yl]methyl]-octahydropyrrolo[3,4-c]pyrrole-2-carboxylate]",25 to 75,< 25,< 25
